In ChEMBL document CHEMBL4507300 (2021):

Legend:
Settings in all cases: Compound concentration 1000.0 nM
[1] = molecular target: Maternal embryonic leucine zipper kinase (Homo sapiens) (UniProt Q14680)
[2] = molecular target: Dual specificity mitogen-activated protein kinase kinase 6 (Homo sapiens) (UniProt P52564)
[3] = molecular target: Calcium/calmodulin-dependent protein kinase type 1 (Homo sapiens) (UniProt Q14012)
[4] = system: Fibroblast growth factor receptor 3 (Homo sapiens), P22607 [G697C]
[5] = system: Epidermal growth factor receptor (Homo sapiens), P00533 [G719S]
[6] = molecular target: Mitogen-activated protein kinase 9 (Homo sapiens) (UniProt P45984)
[7] = molecular target: Focal adhesion kinase 1 (Homo sapiens) (UniProt Q05397)
[8] = molecular target: Ephrin type-A receptor 5 (Homo sapiens) (UniProt P54756)
[9] = molecular target: Serine/threonine-protein kinase 10 (Homo sapiens) (UniProt O94804)
[10] = molecular target: Serine/threonine-protein kinase 25 (Homo sapiens) (UniProt O00506)
[11] = molecular target: Mitogen-activated protein kinase kinase kinase 6 (Homo sapiens) (UniProt O95382)
[12] = molecular target: Cyclin-dependent kinase 5 (Homo sapiens) (UniProt Q00535)
Sequence of Cyclin-dependent kinase 5 (Homo sapiens) (Q00535 whole entry, looked up): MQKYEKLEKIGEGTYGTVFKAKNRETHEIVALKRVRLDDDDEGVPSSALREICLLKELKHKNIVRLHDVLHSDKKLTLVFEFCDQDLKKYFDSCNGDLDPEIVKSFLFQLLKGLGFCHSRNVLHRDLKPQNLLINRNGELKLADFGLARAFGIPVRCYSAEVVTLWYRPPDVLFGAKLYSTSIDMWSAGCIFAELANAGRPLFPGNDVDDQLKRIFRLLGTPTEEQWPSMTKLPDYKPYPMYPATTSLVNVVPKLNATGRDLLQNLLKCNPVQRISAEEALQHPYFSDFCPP

[13] = system: eIF-2-alpha kinase GCN2 (Homo sapiens), Q9P2K8 [S808G]
[14] = molecular target: Tyrosine-protein kinase ABL1 (Homo sapiens) (UniProt P00519)
[15] = molecular target: Activin receptor type-1-like (Homo sapiens) (UniProt P37023)
[16] = molecular target: Serine/threonine-protein kinase TAO3 (Homo sapiens) (UniProt Q9H2K8)
[17] = molecular target: Ephrin type-A receptor 1 (Homo sapiens) (UniProt P21709)
[18] = molecular target: Ephrin type-A receptor 2 (Homo sapiens) (UniProt P29317)
[19] = molecular target: Tyrosine-protein kinase receptor Tie-1 (Homo sapiens) (UniProt P35590)
[20] = molecular target: Dual specificity tyrosine-phosphorylation-regulated kinase 2 (Homo sapiens) (UniProt Q92630)
[21] = molecular target: Cyclin-dependent kinase 9 (Homo sapiens) (UniProt P50750)
[22] = molecular target: Receptor tyrosine-protein kinase erbB-2 (Homo sapiens) (UniProt P04626)
[23] = molecular target: Ephrin type-A receptor 3 (Homo sapiens) (UniProt P29320)
[24] = molecular target: Serine/threonine-protein kinase 26 (Homo sapiens) (UniProt Q9P289)
Sequence of Serine/threonine-protein kinase 26 (Homo sapiens) (Q9P289 2-416 limits assumed): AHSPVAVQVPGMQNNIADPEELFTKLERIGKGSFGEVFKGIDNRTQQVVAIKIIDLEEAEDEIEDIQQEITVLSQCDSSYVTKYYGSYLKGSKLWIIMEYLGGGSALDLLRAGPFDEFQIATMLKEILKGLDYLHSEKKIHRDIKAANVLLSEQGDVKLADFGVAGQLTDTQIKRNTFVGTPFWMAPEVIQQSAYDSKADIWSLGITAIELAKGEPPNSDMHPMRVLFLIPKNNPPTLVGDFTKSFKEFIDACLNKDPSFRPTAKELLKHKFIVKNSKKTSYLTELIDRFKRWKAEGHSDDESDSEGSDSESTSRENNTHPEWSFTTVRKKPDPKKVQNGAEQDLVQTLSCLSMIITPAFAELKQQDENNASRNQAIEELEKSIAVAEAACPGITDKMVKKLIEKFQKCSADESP

[25] = molecular target: Rhodopsin kinase GRK1 (Homo sapiens) (UniProt Q15835)
Sequence of Rhodopsin kinase GRK1 (Homo sapiens) (Q15835 whole entry): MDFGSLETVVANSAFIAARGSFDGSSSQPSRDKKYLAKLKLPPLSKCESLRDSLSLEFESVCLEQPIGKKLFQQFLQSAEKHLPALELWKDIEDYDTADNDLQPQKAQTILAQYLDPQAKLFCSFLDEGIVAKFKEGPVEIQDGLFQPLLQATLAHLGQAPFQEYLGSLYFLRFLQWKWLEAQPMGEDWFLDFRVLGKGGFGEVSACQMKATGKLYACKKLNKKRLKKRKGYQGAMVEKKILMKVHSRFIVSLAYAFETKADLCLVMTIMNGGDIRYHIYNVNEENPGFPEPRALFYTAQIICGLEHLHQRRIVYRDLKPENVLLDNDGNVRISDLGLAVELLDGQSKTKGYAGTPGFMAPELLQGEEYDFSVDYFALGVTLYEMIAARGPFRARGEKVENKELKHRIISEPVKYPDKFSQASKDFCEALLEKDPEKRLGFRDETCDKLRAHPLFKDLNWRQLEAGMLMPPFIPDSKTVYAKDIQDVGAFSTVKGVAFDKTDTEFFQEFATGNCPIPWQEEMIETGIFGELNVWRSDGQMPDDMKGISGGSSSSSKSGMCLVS

[26] = molecular target: Ribosomal protein S6 kinase alpha-1 (Homo sapiens) (UniProt Q15418)
[27] = molecular target: Serine/threonine-protein kinase RIO3 (Homo sapiens) (UniProt O14730)
[28] = molecular target: Ribosomal protein S6 kinase alpha-3 (Homo sapiens) (UniProt P51812)
[29] = molecular target: Serine/threonine-protein kinase Sgk3 (Homo sapiens) (UniProt Q96BR1)
[30] = molecular target: Protein kinase C eta type (Homo sapiens) (UniProt P24723)
[31] = molecular target: Phosphatidylinositol 5-phosphate 4-kinase type-2 gamma (Homo sapiens) (UniProt Q8TBX8)
[32] = molecular target: Serine/threonine-protein kinase D3 (Homo sapiens) (UniProt O94806)
[33] = molecular target: G protein-coupled receptor kinase 4 (Homo sapiens) (UniProt P32298)
[34] = molecular target: Receptor-type tyrosine-protein kinase FLT3 (Homo sapiens) (UniProt P36888)
Sequence of Receptor-type tyrosine-protein kinase FLT3 (Homo sapiens) (P36888 whole entry): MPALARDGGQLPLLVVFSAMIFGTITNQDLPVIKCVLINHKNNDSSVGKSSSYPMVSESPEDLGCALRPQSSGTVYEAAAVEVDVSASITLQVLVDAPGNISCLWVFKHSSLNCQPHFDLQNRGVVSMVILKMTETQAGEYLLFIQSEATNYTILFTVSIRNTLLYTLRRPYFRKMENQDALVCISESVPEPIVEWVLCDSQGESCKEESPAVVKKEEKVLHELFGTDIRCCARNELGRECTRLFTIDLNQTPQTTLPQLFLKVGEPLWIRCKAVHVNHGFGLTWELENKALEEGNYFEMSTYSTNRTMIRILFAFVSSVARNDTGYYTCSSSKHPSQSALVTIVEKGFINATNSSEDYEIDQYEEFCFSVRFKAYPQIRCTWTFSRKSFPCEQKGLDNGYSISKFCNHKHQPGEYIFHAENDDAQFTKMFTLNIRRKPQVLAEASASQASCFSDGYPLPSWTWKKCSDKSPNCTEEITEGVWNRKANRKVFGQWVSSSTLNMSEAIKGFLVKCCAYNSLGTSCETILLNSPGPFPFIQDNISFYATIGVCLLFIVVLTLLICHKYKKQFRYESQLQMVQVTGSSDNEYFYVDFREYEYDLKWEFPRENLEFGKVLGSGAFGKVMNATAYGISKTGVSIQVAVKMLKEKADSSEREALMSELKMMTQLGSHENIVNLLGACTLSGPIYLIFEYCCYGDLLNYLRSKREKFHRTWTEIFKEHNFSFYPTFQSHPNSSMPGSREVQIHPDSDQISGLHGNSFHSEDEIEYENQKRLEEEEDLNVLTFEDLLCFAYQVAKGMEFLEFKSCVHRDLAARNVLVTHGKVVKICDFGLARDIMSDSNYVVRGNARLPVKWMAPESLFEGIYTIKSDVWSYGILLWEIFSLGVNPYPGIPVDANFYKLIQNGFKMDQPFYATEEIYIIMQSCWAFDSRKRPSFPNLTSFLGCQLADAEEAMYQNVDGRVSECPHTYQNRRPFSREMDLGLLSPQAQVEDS

[35] = molecular target: Serine/threonine-protein kinase WNK3 (Homo sapiens) (UniProt Q9BYP7)
[36] = molecular target: Serine/threonine-protein kinase pim-3 (Homo sapiens) (UniProt Q86V86)
[37] = molecular target: Casein kinase I isoform delta (Homo sapiens) (UniProt P48730)
[38] = molecular target: Leukocyte tyrosine kinase receptor (Homo sapiens) (UniProt P29376)
Sequence of Leukocyte tyrosine kinase receptor (Homo sapiens) (P29376 whole entry): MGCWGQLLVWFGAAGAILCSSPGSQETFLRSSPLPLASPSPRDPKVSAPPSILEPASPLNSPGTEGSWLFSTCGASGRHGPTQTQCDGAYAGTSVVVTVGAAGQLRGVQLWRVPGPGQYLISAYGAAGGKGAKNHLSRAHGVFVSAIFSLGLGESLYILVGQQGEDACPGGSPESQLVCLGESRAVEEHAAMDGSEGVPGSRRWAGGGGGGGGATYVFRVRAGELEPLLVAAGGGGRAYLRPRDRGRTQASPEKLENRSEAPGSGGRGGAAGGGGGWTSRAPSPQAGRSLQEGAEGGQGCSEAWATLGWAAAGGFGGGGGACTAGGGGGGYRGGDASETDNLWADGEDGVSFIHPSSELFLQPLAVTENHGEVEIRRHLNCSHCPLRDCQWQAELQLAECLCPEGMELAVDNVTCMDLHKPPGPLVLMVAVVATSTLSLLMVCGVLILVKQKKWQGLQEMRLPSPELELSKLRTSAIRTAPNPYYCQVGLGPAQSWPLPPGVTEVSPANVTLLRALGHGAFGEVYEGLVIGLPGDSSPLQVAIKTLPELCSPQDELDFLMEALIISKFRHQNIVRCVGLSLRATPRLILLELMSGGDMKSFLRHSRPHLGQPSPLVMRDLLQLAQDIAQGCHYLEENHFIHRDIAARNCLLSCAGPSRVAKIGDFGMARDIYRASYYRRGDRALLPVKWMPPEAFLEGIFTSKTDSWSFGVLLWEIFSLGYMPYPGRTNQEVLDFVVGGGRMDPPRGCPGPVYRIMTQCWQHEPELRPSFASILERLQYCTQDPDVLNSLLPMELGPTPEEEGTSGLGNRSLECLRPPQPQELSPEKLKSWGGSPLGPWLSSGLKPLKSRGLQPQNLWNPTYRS

[39] = molecular target: Serine/threonine-protein kinase ULK3 (Homo sapiens) (UniProt Q6PHR2)
[40] = system: Hepatocyte growth factor receptor (Homo sapiens), P08581 [Y1235D]
[41] = system: Tyrosine-protein kinase ABL1 (Homo sapiens), P00519 [F317I]
[42] = system: Proto-oncogene tyrosine-protein kinase receptor Ret (Homo sapiens), P07949 [V804M]
[43] = molecular target: Ankyrin repeat and protein kinase domain-containing protein 1 (Homo sapiens) (UniProt Q8NFD2)
[44] = molecular target: Phosphatidylinositol 4,5-bisphosphate 3-kinase catalytic subunit alpha isoform (Homo sapiens) (UniProt P42336)
Sequence of Phosphatidylinositol 4,5-bisphosphate 3-kinase catalytic subunit alpha isoform (Homo sapiens) (P42336 whole entry, canonical isoform): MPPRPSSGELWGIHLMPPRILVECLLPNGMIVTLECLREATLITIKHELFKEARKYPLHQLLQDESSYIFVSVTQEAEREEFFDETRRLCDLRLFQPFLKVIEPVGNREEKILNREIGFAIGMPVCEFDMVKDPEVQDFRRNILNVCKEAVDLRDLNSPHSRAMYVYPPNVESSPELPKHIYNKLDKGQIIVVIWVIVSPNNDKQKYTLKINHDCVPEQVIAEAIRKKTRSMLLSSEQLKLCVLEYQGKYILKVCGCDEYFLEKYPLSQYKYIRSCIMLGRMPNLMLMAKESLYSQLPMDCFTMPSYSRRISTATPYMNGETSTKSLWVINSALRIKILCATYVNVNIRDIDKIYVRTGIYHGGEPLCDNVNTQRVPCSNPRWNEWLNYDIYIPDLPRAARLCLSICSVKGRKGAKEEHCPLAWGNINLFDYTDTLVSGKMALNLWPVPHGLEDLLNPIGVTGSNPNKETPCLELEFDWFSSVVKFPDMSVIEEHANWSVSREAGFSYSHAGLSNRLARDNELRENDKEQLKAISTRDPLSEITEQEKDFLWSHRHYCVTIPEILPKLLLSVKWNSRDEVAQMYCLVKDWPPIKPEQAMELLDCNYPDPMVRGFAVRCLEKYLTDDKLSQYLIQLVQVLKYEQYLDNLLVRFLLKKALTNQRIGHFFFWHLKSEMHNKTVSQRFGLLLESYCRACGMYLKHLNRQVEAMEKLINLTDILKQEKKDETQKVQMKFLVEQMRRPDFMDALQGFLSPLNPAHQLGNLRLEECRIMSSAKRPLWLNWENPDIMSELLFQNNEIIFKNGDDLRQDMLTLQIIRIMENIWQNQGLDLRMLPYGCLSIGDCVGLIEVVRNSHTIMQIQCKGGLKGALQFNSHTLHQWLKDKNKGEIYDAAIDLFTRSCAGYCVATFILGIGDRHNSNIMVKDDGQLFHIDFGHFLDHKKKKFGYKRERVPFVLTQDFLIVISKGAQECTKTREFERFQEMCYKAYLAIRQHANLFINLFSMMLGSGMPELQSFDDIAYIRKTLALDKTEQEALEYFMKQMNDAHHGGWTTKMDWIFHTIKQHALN

[45] = molecular target: Ribosomal protein S6 kinase alpha-6 (Homo sapiens) (UniProt Q9UK32)
[46] = molecular target: Dual specificity mitogen-activated protein kinase kinase 5 (Homo sapiens) (UniProt Q13163)

Measured: residual activity

Sequence of Calcium/calmodulin-dependent protein kinase type 1 (Homo sapiens) (Q14012 whole entry, looked up): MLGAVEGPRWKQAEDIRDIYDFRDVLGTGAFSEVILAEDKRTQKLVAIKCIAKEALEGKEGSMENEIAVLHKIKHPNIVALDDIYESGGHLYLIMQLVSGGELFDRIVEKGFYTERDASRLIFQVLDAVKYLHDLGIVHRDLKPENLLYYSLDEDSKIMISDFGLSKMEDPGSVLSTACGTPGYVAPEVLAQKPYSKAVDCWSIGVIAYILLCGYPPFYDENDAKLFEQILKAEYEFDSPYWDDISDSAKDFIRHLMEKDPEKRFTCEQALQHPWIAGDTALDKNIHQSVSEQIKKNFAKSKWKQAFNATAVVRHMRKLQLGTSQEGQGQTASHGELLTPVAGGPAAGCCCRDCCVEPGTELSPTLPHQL
Sequence of Dual specificity mitogen-activated protein kinase kinase 6 (Homo sapiens) (P52564 whole entry): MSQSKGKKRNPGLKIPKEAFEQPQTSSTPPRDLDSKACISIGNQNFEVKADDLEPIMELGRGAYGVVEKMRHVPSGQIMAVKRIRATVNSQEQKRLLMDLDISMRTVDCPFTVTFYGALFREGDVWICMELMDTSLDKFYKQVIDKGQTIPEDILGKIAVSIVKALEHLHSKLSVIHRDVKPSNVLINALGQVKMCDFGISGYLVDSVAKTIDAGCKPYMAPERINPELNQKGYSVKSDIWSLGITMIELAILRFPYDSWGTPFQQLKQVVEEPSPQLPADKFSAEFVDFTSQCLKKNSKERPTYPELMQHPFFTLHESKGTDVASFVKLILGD

COc1cccc(CNC(=O)c2nc3scc(COCc4ccc(C(=O)O)cc4)c3c(=O)[nH]2)c1 [T-26c]
inactive: [1] 100% | [2] 100% | [3] 88.2% | [4] 80.2% | [5] 100% | [6] 97.1% | [7] 100% | [8] 98.5% | [9] 67.8% | [10] 100% | [11] 74.5% | [12] 95.7% | [13] 100% | [14] 85% | [15] 100% | [16] 72.3% | [17] 79.9% | [18] 100% | [19] 100% | [20] 100% | [21] 78.6% | [22] 97.2% | [23] 91.3% | [24] 72.2% | [25] 57.5% | [26] 100% | [27] 63.2% | [28] 100% | [29] 69.2% | [30] 83.7% | [31] 74.7% | [32] 100% | [33] 72.1% | [34] 62.5% | [35] 83.6% | [36] 100% | [37] 100% | [38] 70.6% | [39] 76% | [40] 100% | [41] 96.4% | [42] 95.3% | [43] 70.9% | [44] 78.8% | [45] 63.5% | [46] 100%
